Test results reported in US6596508B2, “CRE-inducible expression system” (National Research Council of Canada, priority 1999, dated 2003).

Assays:
[1] = tested on: HEK293-pCRE5/SEAP transfectoma; test: Forskolin-induced SEAP production in stable HEK293-pCRE5/SEAP transfectoma, 50 h; assay type: cell-based, human
Method: Upper Panel A: Stable HEK293-pCRE5/SEAP transfectoma was stimulated with 20 μM forskolin with or without 100 μM IBMX or 200 μM theophylline for 50 h and SEAP activity was then measured on an aliquot of the supernatant (FIG. 7).

prostanoid EP2 receptor [2] = test: Transient expression and activation of the EP2 receptor in the HEK293-pCRE5/SEAP transfectoma (SEAP reporter); assay type: cell-based; conditions: transiently transfected EP2 receptor, PGE2 challenge for 6 hours, SEAP readout; read-out: estimated EC50
Method: Twenty four hours after transfection with a plasmid containing the prostanoid EP2 receptor (closed symbol) or the empty vector (open symbol), the HEK293-pCRE5/SEAP transfectoma was challenged with PGE2 for 6 hours (FIG. 4). The estimated EC50 was below 1 nM of PGE2.

prostanoid EP2 receptor [3] = biological target: T1, prostanoid EP2 receptor (Homo sapiens, UniProt P43116); test: HEK293-pCRE5/SEAP transfectoma stably transfected with EP2 receptor, response to PGE2 with or without IBMX; assay type: cell-based; conditions: stable EP2 transfectant, 100 μM IBMX vs absence, 6 h
T1 construct: expressed in transfected cells
T1 sequence (P43116 whole entry, species assumed): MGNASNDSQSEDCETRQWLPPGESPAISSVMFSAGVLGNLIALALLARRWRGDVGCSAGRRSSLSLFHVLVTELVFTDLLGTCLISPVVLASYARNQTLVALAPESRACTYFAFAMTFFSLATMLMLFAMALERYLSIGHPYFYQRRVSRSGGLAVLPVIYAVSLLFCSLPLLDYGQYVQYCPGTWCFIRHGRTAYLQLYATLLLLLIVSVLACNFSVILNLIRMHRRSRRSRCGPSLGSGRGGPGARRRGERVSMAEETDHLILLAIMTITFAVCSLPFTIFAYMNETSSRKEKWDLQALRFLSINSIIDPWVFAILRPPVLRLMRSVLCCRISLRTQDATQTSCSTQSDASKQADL
Method: A HEK293-pCRE5/SEAP transfectoma was stably transfected with the prostanoid EP2 receptor and challenged with PGE2 in the absence (empty circles) or presence (closed circles) of 100 μM IBMX for 6 h and SEAP activity determined (FIG. 5). In this case, EC50 was shifted 10-fold to the left.

| SMILES | fold-induction of SEAP activity (Panel B, independent experiment) ([1]; 20 μM forskolin with or without 100 μM IBMX) [fold] | fold-induction of SEAP activity (Panel A) ([1]; 20 μM forskolin with or without 100 μM IBMX or 200 μM theophylline) [fold] | EC50 (prostanoid EP2 receptor [2]) [nM] | EC50 shift to the left in presence of IBMX (prostanoid EP2 receptor [3]) [fold] |
| --- | --- | --- | --- | --- |
| C=C[C@@]1(C)CC(=O)[C@]2(O)[C@@]3(C)[C@@H](O)CCC(C)(C)[C@@H]3[C@H](O)[C@H](OC(C)=O)[C@@]2(C)O1 [forskolin] | 198 | 128 |  |  |
| CCCCC[C@H](O)/C=C/[C@H]1[C@H](O)CC(=O)[C@@H]1C/C=C\CCCC(=O)O [PGE2] |  |  | < 1 | 10 |
